Source: PubChem BioAssay AID1963451 (Molecular Pharmacology Branch, DTP, NCI, 2024)

System: 521955-158-R6-J3-PDC complex spheroid growth, % test/control
Assay: Anticancer human tumor 521955-158-R6-J3-PDC patient-derived pancreatic carcinoma cell line growth inhibition [Asc]
Conditions: for IC50: curve of first compound; for viability, T/C: stronger effect = lower value
Protocol: Multicellular complex tumor spheroid response to apoptosis pathway targeting inhibitors Alrizomadlin, Pelcitoclax, and Dasminapant in combination with a variety of drugs and investigational agents in selected tumor cell lines
The MDM2 inhibitor alrizomadlin, the Bcl-2/Bcl-xL inhibitor pelcitoclax, and the IAPs inhibitor dasminapant were evaluated both individually and in combination with standard of care and investigational anticancer small molecules within a complex spheroid model of solid tumors. . Complex spheroids include a stromal component modeled by human endothelial cells (HUVEC) and fibroblasts modeled by human mesenchymal stem cells (MSCs). The concentration ranges selected for each drug and investigational agent were based upon clinically achievable concentrations if the clinical Cmax of the agent was known.
Compounds. The drugs and investigational agents: alrizomadlin (APG-115; NSC831270), pelcitoclax (APG-1252; NSC835773), dasminapant (APG-1387;NSC834197), TAK-243 (NSC785004), copanlisib (NSC809693), olaparib (NSC753686), talazoparib (NSC767125), cobimetinib (NSC 768068), eltanexor (KPT-8602, NSC 794443), abemaciclib (NSC 768073), sotorasib (NSC818433), adagrasib (NSC 831453), MRTX-1133 (NSC 836407), Iadademestat (ORY1001, NSC 806812), and RMC-4630 (NSC839698), were obtained from the NCI Developmental Therapeutics Program Chemical Repository. The FDA-approved anticancer drug set is available from the Developmental Therapeutics Program at https://dtp.cancer.gov/organization/dscb/obtaining/available plates.htm. […] The stock solutions were prepared in dimethyl sulfoxide (DMSO, Sigma-Aldrich, St. Louis, MO, cat. D2650) at 800-fold the tested concentration and stored at -70 degrees C prior to their use. All drugs and investigational agents were tested over a range starting from a high concentration at or near the clinical Cmax and decreasing in half-log increments. If the clinical Cmax for an agent had not been determined, the highest concentration tested was 10 microM.
The patient-derived cancer (PDC) cell lines include five colon adenocarcinomas: 186277-243-T-J2-PDC, 616215-338-R-J1-PDC, 439559-082-T-J2-PDC, 463943-066-T-J2-PDC, and 519858-162-T-J1-PDC; three pancreatic carcinomas: 323965-272-R-J2-PDC, 521955-158-R6-J3-PDC, and 521955-158-R2-J5-PDC; two uterine sarcomas: 327498-152-R-J2-PDC and 993429-296-R-J1-PDC; two rhabdomyosarcomas: 755483-174-R-J1-PDC and 772245-204-R-J1-PDC; two soft tissue sarcomas: 126254-015-R-J1-PDC and 494315-158-R-J1-PDC; two malignant fibrous histiocytomas: 317291-083-R-J1-PDC and 596521-263-R-J1-PDC; two breast carcinomas: 171881-019-R-J1-PDC and 885512-296-R-J2-PDC; and one ovarian carcinoma: 6556581-035-R-J-PDC were obtained from the NCI PDMR, (https://pdmr.cancer.gov). The established cell lines HSSY-2 synovial sarcoma (RRID:CVCL 8719), SYO-1 synovial sarcoma (RRID:CVCL_7146), MPNST malignant peripheral neural sheath tumor were obtained from the Sloan Kettering Institute. The following established cell lines were purchased from the American Type Culture Collection (ATCC, Manassas, VA), Sor the received from the NCI repository:, PANC-1 pancreatic carcinoma (CRL-1469, RRID:CVCL_0480), OVCAR-5 ovarian carcinoma (RRID:CVCL_1628), OVCAR-8 ovarian carcinoma (RRID:CVCL_1629), , MCF-7 breast carcinoma (CRL-12584, RRID:CVCL_0031), MDA-MB-231 breast carcinoma (CRL-12532, RRID:CVCL_0062), NCI-H1876 small cell lung carcinoma (CRL-5902, RRID:CVCL_1503), NCI-H510A small cell lung carcinoma (HTB-184, RRID:CVCL_1565), NCI-H1417 (CRL-5869, RRID:CVCL_1469), and NCI-H196 small cell lung carcinoma (CRL-5823, RRID:CVCL_1509). Dr. Peter Houghton (Greehey Children's Cancer Research Institute, University of Texas Health Science Center, San Antonio, TX) provided Rh-18 rhabdomyosarcoma (RRID:CVCL_1659). Pooled donor human umbilical vein endothelial cells (HUVEC, Lonza, cat. CC-2519) and human mesenchymal stem cells (hMSC, Lonza, cat. PT-2501) were purchased from Lonza (Walkersville, MD).
Cell Culture. […]
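Note: spheroids exposed to compounds for 7 days.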
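Throughout, for viability, T/C: 100% = DMSO vehicle control wells.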

O=C(c1cc(Cc2n[nH]c(=O)c3ccccc23)ccc1F)N1CCN(C(=O)C2CC2)CC1 + CCN1C(C(=O)NC23CCC(C(=O)O)(CC2)CC3)C(c2cccc(Cl)c2F)C2(C(=O)Nc3cc(Cl)ccc32)C12CCCCC2
IC50 (second compound 0.00949 µM): > 10 µM
IC50 (second compound 0.03 µM): > 10 µM
IC50 (second compound 0.0949 µM): > 10 µM
IC50 (second compound 0.3 µM): > 10 µM
IC50 (second compound 0.949 µM): > 10 µM
IC50 (second compound 3 µM): > 10 µM
viability, T/C (second compound 0.00949 µM, first compound 0.0316 µM): 109%
viability, T/C (second compound 0.00949 µM, first compound 0.1 µM): 98.4%
viability, T/C (second compound 0.00949 µM, first compound 0.316 µM): 92.4%
viability, T/C (second compound 0.00949 µM, first compound 1 µM): 83.7%
viability, T/C (second compound 0.00949 µM, first compound 3.16 µM): 83.4%
viability, T/C (second compound 0.00949 µM, first compound 10 µM): 89.7%
viability, T/C (second compound 0.03 µM, first compound 0.0316 µM): 127%
viability, T/C (second compound 0.03 µM, first compound 0.1 µM): 98.7%
viability, T/C (second compound 0.03 µM, first compound 0.316 µM): 94.2%
viability, T/C (second compound 0.03 µM, first compound 1 µM): 108%
viability, T/C (second compound 0.03 µM, first compound 3.16 µM): 82%
viability, T/C (second compound 0.03 µM, first compound 10 µM): 88.8%
viability, T/C (second compound 0.0949 µM, first compound 0.0316 µM): 106%
viability, T/C (second compound 0.0949 µM, first compound 0.1 µM): 98.6%
viability, T/C (second compound 0.0949 µM, first compound 0.316 µM): 88.6%
viability, T/C (second compound 0.0949 µM, first compound 1 µM): 101%
viability, T/C (second compound 0.0949 µM, first compound 3.16 µM): 96.4%
viability, T/C (second compound 0.0949 µM, first compound 10 µM): 89.8%
viability, T/C (second compound 0.3 µM, first compound 0.0316 µM): 113%
viability, T/C (second compound 0.3 µM, first compound 0.1 µM): 110%
viability, T/C (second compound 0.3 µM, first compound 0.316 µM): 135%
viability, T/C (second compound 0.3 µM, first compound 1 µM): 90.6%
viability, T/C (second compound 0.3 µM, first compound 3.16 µM): 89.3%
viability, T/C (second compound 0.3 µM, first compound 10 µM): 104%
viability, T/C (second compound 0.949 µM, first compound 0.0316 µM): 113%
viability, T/C (second compound 0.949 µM, first compound 0.1 µM): 114%
viability, T/C (second compound 0.949 µM, first compound 0.316 µM): 104%
viability, T/C (second compound 0.949 µM, first compound 1 µM): 92.1%
viability, T/C (second compound 0.949 µM, first compound 3.16 µM): 89.2%
viability, T/C (second compound 0.949 µM, first compound 10 µM): 89%
viability, T/C (second compound 3 µM, first compound 0.0316 µM): 90.8%
viability, T/C (second compound 3 µM, first compound 0.1 µM): 100%
viability, T/C (second compound 3 µM, first compound 0.316 µM): 96.5%
viability, T/C (second compound 3 µM, first compound 1 µM): 94.4%
viability, T/C (second compound 3 µM, first compound 3.16 µM): 104%
viability, T/C (second compound 3 µM, first compound 10 µM): 101%
